# Test results taken from PubChem BioAssay (NCI).
#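 Following 48 hours of exposure in 96-well plates, responses at five concentrations were used to interpolate endpoints linearly. GI50 is the concentration that inhibits growth by half. At the TGI there is no net growth.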
# Experiments:
# Experiment in all cases: NCI tumour cell line growth inhibition, 48 h
# CCRF-CEM leukemia = tested on: CCRF-CEM leukemia
# MDA-MB-231 breast = tested on: MDA-MB-231 breast
# MOLT-4 leukemia = tested on: MOLT-4 leukemia
# HCT-15 colon = tested on: HCT-15 colon
# OVCAR-8 ovarian = tested on: OVCAR-8 ovarian
# MCF7 breast = tested on: MCF7 breast
# UACC-257 melanoma = tested on: UACC-257 melanoma
# NCI/ADR-RES ovarian = tested on: NCI/ADR-RES ovarian
# SK-MEL-5 melanoma = tested on: SK-MEL-5 melanoma
# PC-3 prostate = tested on: PC-3 prostate
SMILES,GI50 (CCRF-CEM leukemia) [µM],GI50 (MDA-MB-231 breast) [µM],TGI (MDA-MB-231 breast) [µM],GI50 (MOLT-4 leukemia) [µM],GI50 (HCT-15 colon) [µM],TGI (HCT-15 colon) [µM],GI50 (OVCAR-8 ovarian) [µM],TGI (OVCAR-8 ovarian) [µM],GI50 (MCF7 breast) [µM],TGI (MCF7 breast) [µM],GI50 (UACC-257 melanoma) [µM],TGI (UACC-257 melanoma) [µM],GI50 (NCI/ADR-RES ovarian) [µM],TGI (NCI/ADR-RES ovarian) [µM],GI50 (SK-MEL-5 melanoma) [µM],TGI (SK-MEL-5 melanoma) [µM],GI50 (PC-3 prostate) [µM],TGI (PC-3 prostate) [µM],TGI (CCRF-CEM leukemia) [µM],TGI (MOLT-4 leukemia) [µM]
c1ccc(Cn2cc3c(c2)-c2oncc2CC3)cc1,0.348,1.36,51.9,0.394,0.863,> 100,2.79,> 39.1,0.349,> 100,22.7,98.5,0.554,7.22,0.348,11.8,1.99,> 100,,
CN(C)CCCNC(=O)c1cc2c3ccccc3[nH]c2c2ncccc12,4.31,14.4,74.9,8.78,11.6,58.5,12.6,> 100,14.7,66.8,15,32.4,19.2,66.1,13.5,26.6,24.9,> 100,56.4,> 100
COc1ccc(S(=O)(=O)O)cc1NS(=O)(=O)c1ccc(C)cc1,,,> 100,,,> 100,,> 100,,> 100,,> 100,,> 100,,> 100,,> 100,> 100,> 100
COc1cc(C2c3cc4c(cc3C3OC(=O)C2C3CO)OCO4)cc(OC)c1OC (configuration not stated),0.0271,0.03,0.0901,0.0385,0.0272,> 100,0.0274,> 100,< 0.01,> 100,,> 100,0.0181,0.0607,0.0176,0.047,0.0285,> 100,> 100,> 100
NC(=O)Nc1ccc2ncnc(Nc3ccc(Cl)cc3)c2c1,20.3,13.7,> 61.4,21.4,20.1,> 100,20.4,> 96.6,26.9,> 100,22,66,18.3,> 81.5,13.6,30.8,19.4,> 96.2,> 100,84.7
c1ccc(-c2n(Cc3ccc4ccccc4n3)c3ccccc3[n+]2Cc2ccc3ccccc3n2)cc1,0.365,0.269,1.3,0.443,2.23,5.99,0.341,1.46,0.274,1.2,0.252,0.933,13.6,> 55.6,0.219,0.502,0.23,1.35,2.81,2.09
CSc1nc(Cl)c(Br)c(Nc2c[nH]c(=O)[nH]c2=O)n1,,,30.1,,,27.6,,30.4,,> 100,,38.7,,43.3,,42.6,,45.8,49,43.6
Cc1cc[c-]cc1.Fc1c[c-]c(-c2ccccn2)c(F)c1.N#CCC[PH+](CCC#N)c1ccccc1.[Pt+2],3.49,2.74,7.57,2.79,2.89,11.6,4,> 100,2.68,17.6,1.9,4.41,4.24,52.8,2.24,5.36,3.01,20.7,> 100,> 100
COC(=O)[C@]12CC[C@@H](C)[C@H](C)[C@@H]1C1=CC[C@@H]3[C@@]4(C)C(c5ncon5)=C[C@@](C)(CO)C4=CC[C@@]3(C)[C@]1(C)CC2,1.89,2.2,5.08,1.69,1.91,4.08,3.41,10.2,1.42,2.9,2.1,4.34,2.28,5.72,1.88,3.41,2.1,4.7,4.35,3.92
CCOC(=O)Nc1nc2c(F)c(F)c(F)cc2s1,> 100,36.2,> 100,> 100,> 100,> 100,48.1,> 100,> 100,> 100,> 100,> 100,> 100,> 100,> 100,> 100,> 100,> 100,> 100,> 100
